The assay deals with T1, human recombinant mGluR5 (Homo sapiens, UniProt P41594).
T1 construct: expressed in transfected cells; host or cells: HEK 293 cell line
T1 sequence (P41594 21-1212): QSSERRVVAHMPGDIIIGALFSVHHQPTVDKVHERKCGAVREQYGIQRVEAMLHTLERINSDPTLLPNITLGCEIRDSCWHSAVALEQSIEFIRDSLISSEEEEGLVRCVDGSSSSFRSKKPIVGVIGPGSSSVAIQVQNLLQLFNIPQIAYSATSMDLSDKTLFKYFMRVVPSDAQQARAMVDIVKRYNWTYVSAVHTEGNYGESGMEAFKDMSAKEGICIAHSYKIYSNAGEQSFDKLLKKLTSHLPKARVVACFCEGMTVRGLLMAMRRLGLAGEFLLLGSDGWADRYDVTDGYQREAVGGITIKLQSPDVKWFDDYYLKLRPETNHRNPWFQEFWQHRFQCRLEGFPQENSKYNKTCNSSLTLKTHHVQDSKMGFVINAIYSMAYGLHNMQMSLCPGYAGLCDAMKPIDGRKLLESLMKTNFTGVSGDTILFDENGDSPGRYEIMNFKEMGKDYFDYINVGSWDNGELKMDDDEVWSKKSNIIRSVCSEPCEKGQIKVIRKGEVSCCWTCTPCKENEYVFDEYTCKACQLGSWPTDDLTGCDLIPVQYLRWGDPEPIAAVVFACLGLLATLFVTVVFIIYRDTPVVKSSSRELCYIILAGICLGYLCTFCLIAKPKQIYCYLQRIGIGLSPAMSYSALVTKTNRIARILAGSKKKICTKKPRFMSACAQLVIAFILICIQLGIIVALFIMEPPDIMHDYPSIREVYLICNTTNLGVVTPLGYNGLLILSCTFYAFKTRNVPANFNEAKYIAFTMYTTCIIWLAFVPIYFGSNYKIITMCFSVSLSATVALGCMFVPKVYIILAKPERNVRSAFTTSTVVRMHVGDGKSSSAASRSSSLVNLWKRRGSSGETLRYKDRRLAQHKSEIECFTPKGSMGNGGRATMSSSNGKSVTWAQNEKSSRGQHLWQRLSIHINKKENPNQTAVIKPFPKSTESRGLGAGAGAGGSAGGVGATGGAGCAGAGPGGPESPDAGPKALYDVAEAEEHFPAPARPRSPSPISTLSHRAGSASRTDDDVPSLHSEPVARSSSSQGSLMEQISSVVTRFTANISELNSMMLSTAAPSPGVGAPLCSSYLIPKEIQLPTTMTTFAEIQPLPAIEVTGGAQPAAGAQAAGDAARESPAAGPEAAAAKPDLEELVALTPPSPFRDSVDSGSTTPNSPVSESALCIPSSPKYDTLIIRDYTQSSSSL
Put plainly: Positive modulation of mGluR5, calcium based FLIPR assay in HEK 293 cells. To be noted: EC50 of the modulation; HEK 293 cell line expressing human recombinant mGluR5; glutamate at approximately 5% basal stimulation; peak height of Ca release fluorescence signal. Here is the method:
The positive modulation of mGluR5 is measured in a HEK 293 cell line expressing human recombinant mGluR5 and is detected with calcium based FLIPR assay. The cells are cultured with DMEM supplemented with 10% FCS, 2 μg/mL tetracycline, 100 μg/mL hygromycin and 500 μg/mL gneticin. The cell culture media is exchanged for tetracycline-free cell culture media 3-7 days before the assay. One day before the assay the cell culture medium is exchanged to DMEM without glutamine and phenol red and supplemented with 10% FCS, 100 μg/mL hygromycin and 500 μg/mL geneticin. On the assay day, the medium of the subconfluent cultures is removed and the cells are detached by addition of 2.5 ml EDTA(0.02%) per 175 cm2 culture flask for 1 minute. The cells are resuspend in Ringer solution (140 mM NaCl, 5 mM KCl, 2.5 mM CaCl2, 1.5 mM MgCl2, 5 mM Glucose, 10 mM Hepes; adjusted to pH 7.4 with NaOH), pooled and Ringer solution added to adjust the volume to 50 mL. The cell suspension is centrifuged for […] at 1500 U/min (425 g). The supernatant is removed and the cells washed a second time with 50 ml fresh Ringer solution and centrifuged again as before. The supernatant is again removed and the pellet resuspended in Ringer solution to 1,000,000 cells/ml (1×10^6 cells/mL). The cells are plated onto BD BioCoat Poly-D-Lysine 384 well plates (20.000 cells/well; 20 μl/well). The lid covered plates are then incubated until use at 37° C./10% CO2. For dye loading, 20 μl of Calcium-4 assay kit solution (prepared according to the manufacturer's description in Ringer solution) are added to the cells and the plates are incubated for 80 min 37° C. and then 10 min at room temperature.
Controls, Compound Dilution and Assay Execution:
Each assay plate contained wells with “high” and “low” controls:
Low controls 1% DMSO/ringer solution+basal glutamate activation (defined as 100% CTL).
High controls 10 μM CDPPB+basal glutamate activation (defined as 200% CTL).
Test compounds are dissolved and diluted in DMSO to 100-fold the desired concentrations. In a second step, the compounds are diluted in Ringer solution such that the compounds are 4-fold more concentrated than the desired final assay concentration. The final DMSO concentration was 1%.
20 μl of each compound solution are then transferred to the assay plate and the Ca2+ kinetic is measured to determine any intrinsic compound activity. After 5 min incubation in the FLIPR device, the second stimulation with 20 μl of glutamate in Ringer solution (glutamate concentration adjusted to approximately 5% basal stimulation of the maximal possible glutamate effect) is added and the kinetic Ca2+ response of the wells was measured for the modulation effect.
The peak height of the Ca release related fluorescence signal (9-66) is used for the EC50. The EC50 of the modulation is calculated over a nonlinear regression with GraphPad Prism (Table 1).
As for `O=C(Cc1nc(-c2ccccc2)cn1-c1ccccc1)N1CCN(c2ncccn2)CC1` [Example 7.01.01., 2-(1,4-diphenyl-1H-imidazol-2-yl)-1-(4-pyrimidin-2-yl-piperazin-1-yl)-ethanone], the EC50 – broadly, the concentration needed to bring the measured effect to its halfway point – came to 155 nM.

Take `O=C(Cc1nc(-c2ccc(F)cc2)cn1-c1ccc(F)cc1)N1CCN(c2ncccn2)CC1` [Example 7.01.02.]: the EC50 stood at 43 nM.

For the molecule `COc1ccc(-c2cn(-c3ccc(OC)cc3)c(CC(=O)N3CCN(c4ncccn4)CC3)n2)cc1` [Example 7.01.03.], the EC50 came to 88 nM.

As to `Cc1ccc(-n2cc(-c3ccccc3)nc2CC(=O)N2CCN(c3ncccn3)CC2)cc1` [Example 7.01.04.], the EC50 was determined as 211 nM.

For `O=C(Cc1nc(-c2ccc(F)cc2)cn1-c1ccc(F)cc1)N1CCN(c2ccccn2)CC1` [Example 7.02.01., 2-(1,4-Bis-(4-fluoro-phenyl)-1H-imidazol-2-yl)-1-(4-pyridin-2-yl-piperazin-1-yl)-ethanonene], the EC50 worked out at 54 nM.

As to `COc1ccnc(N2CCN(C(=O)Cc3nc(-c4ccc(F)cc4)cn3-c3ccc(F)cc3)CC2)c1` [Example 7.03.01., 2-(1,4-Bis-(4-fluoro-phenyl)-1H-imidazol-2-yl)-1-(4-(4-methoxy-pyridin-2-yl)-piperazin-1-yl)-ethanone], the EC50 is 57 nM.

Take `O=C(Cc1nc(-c2ccc(F)cc2)cn1-c1ccc(F)cc1)N1CCN(c2cccnn2)CC1` [Example 7.03.02.]: the EC50 worked out at 112 nM.

With `O=C(Cc1nc(-c2ccc(F)cc2)cn1-c1ccc(F)cc1)N1CCN(c2ncncn2)CC1` [Example 7.04.01., 2-(1,4-Bis-(4-fluoro-phenyl)-1H-imidazol-2-yl)-1-(4-[1,3,5]triazin-2-yl-piperazin-1-yl)-ethanone], the EC50 is 52 nM.

`COc1cc(N2CCN(C(=O)Cc3nc(-c4ccc(F)cc4)cn3-c3ccc(F)cc3)CC2)ncn1` [Example 7.04.02.]: the EC50 was found to be 80 nM.

Regarding `Cc1ccc(-c2cn(-c3ccc(F)cc3)c(CC(=O)N3CCN(c4cccnn4)CC3)n2)cc1` [Example 7.04.03.], the EC50 came out at 42 nM.

On to `Cc1ccc(-c2cn(-c3ccc(F)cc3)c(CC(=O)N3CCN(c4ncccn4)CC3)n2)cc1` [Example 7.04.04.], for which the EC50 was 18 nM.

In the case of `COc1ccnc(N2CCN(C(=O)Cc3nc(-c4ccc(C)cc4)cn3-c3ccc(F)cc3)CC2)c1` [Example 7.04.05.], the EC50 was found to be 42 nM.

Regarding `Cc1ccc(-c2cn(-c3ccc(F)cc3)c(CC(=O)N3CCN(c4ccccn4)CC3)n2)cc1` [Example 7.04.06.], the EC50 stood at 36 nM.

Turning to `COc1cc(N2CCN(C(=O)Cc3nc(-c4ccc(C)cc4)cn3-c3ccc(F)cc3)CC2)ncn1` [Example 7.04.07.], the EC50 was 114 nM.

As for `Cc1ccc(-c2cn(-c3ccc(F)cc3)c(CC(=O)N3CCN(c4ncncn4)CC3)n2)cc1` [Example 7.04.08.], the EC50 was 41 nM.

Turning to `COc1cnc(N2CCN(C(=O)Cc3nc(-c4ccc(C)cc4)cn3-c3ccc(F)cc3)CC2)nc1` [Example 7.04.09.], the EC50 worked out at 20 nM.

On to `COc1ccc(-c2cn(-c3ccc(F)cc3)c(CC(=O)N3CCN(c4ncccn4)CC3)n2)cc1` [Example 7.04.10.], for which the EC50 came out at 20 nM.

With `COc1ccc(-c2cn(-c3ccc(F)cc3)c(CC(=O)N3CCN(c4cccnn4)CC3)n2)cc1` [Example 7.04.11.], the EC50 amounted to 40 nM.

`COc1ccc(-c2cn(-c3ccc(F)cc3)c(CC(=O)N3CCN(c4cc(OC)ccn4)CC3)n2)cc1` [Example 7.04.12.]: the EC50 worked out at 40 nM.

For `COc1ccc(-c2cn(-c3ccc(F)cc3)c(CC(=O)N3CCN(c4ccccn4)CC3)n2)cc1` [Example 7.04.13.], the EC50 was found to be 37 nM.

As for `COc1ccc(-c2cn(-c3ccc(F)cc3)c(CC(=O)N3CCN(c4cc(OC)ncn4)CC3)n2)cc1` [Example 7.04.14.], the EC50 came to 33 nM.

As to `COc1ccc(-c2cn(-c3ccc(F)cc3)c(CC(=O)N3CCN(c4ncncn4)CC3)n2)cc1` [Example 7.04.15.], the EC50 was found to be 91 nM.

As to `COc1ccc(-c2cn(-c3ccc(F)cc3)c(CC(=O)N3CCN(c4ncc(OC)cn4)CC3)n2)cc1` [Example 7.04.16.], the EC50 was determined as 47 nM.

Turning to `Cc1cc(-c2cn(-c3ccc(F)cc3)c(CC(=O)N3CCN(c4ncccn4)CC3)n2)ccc1Cl` [Example 7.04.17.], the EC50 is 21 nM.

As for `Cc1cc(-c2cn(-c3ccc(F)cc3)c(CC(=O)N3CCN(c4ccccn4)CC3)n2)ccc1Cl` [Example 7.04.18.], the concentration for a half-maximal effect (EC50) turned out to be 30 nM.

Take `Cc1cc(-c2cn(-c3ccc(F)cc3)c(CC(=O)N3CCN(c4cccnn4)CC3)n2)ccc1Cl` [Example 7.04.19.]: the EC50 was found to be 13 nM.

On to `COc1ccnc(N2CCN(C(=O)Cc3nc(-c4ccc(Cl)c(C)c4)cn3-c3ccc(F)cc3)CC2)c1` [Example 7.04.20.], for which the EC50 is 69 nM.

As to `COc1cc(N2CCN(C(=O)Cc3nc(-c4ccc(Cl)c(C)c4)cn3-c3ccc(F)cc3)CC2)ncn1` [Example 7.04.21.], the EC50 is 114 nM.

`Cc1cc(-c2cn(-c3ccc(F)cc3)c(CC(=O)N3CCN(c4ncncn4)CC3)n2)ccc1Cl` [Example 7.04.22.]: the EC50 amounted to 35 nM.

In the case of `Cc1cc(-c2cn(-c3ccc(F)cc3)c(CC(=O)N3CCN(c4ccccn4)CC3)n2)ccc1F` [Example 7.04.23.], the EC50 stood at 42 nM.

For `Cc1cc(-c2cn(-c3ccc(F)cc3)c(CC(=O)N3CCN(c4cccnn4)CC3)n2)ccc1F` [Example 7.04.24.], the EC50 was found to be 64 nM.

`Cc1cc(-c2cn(-c3ccc(F)cc3)c(CC(=O)N3CCN(c4ncccn4)CC3)n2)ccc1F` [Example 7.04.25.]: the EC50 was determined as 21 nM.

With `COc1cc(N2CCN(C(=O)Cc3nc(-c4ccc(F)c(C)c4)cn3-c3ccc(F)cc3)CC2)ncn1` [Example 7.04.26.], the EC50 was found to be 41 nM.

Consider `COc1ccnc(N2CCN(C(=O)Cc3nc(-c4ccc(F)c(C)c4)cn3-c3ccc(F)cc3)CC2)c1` [Example 7.04.27.], for which the EC50 was found to be 44 nM.

For the molecule `Cc1cc(-c2cn(-c3ccc(F)cc3)c(CC(=O)N3CCN(c4ncncn4)CC3)n2)ccc1F` [Example 7.04.28.], the EC50 worked out at 24 nM.

Consider `COc1ccc(-c2cn(-c3ccccc3)c(CC(=O)N3CCN(c4cc(OC)ncn4)CC3)n2)cc1` [Example 7.04.29.], for which the EC50 came out at 119 nM.

As to `COc1ccc(-c2cn(-c3ccccc3)c(CC(=O)N3CCN(c4ccccn4)CC3)n2)cc1` [Example 7.04.30.], the EC50 is 190 nM.

On to `COc1ccc(-c2cn(-c3ccccc3)c(CC(=O)N3CCN(c4cc(OC)ccn4)CC3)n2)cc1` [Example 7.04.31.], for which the EC50 was 146 nM.

`COc1ccc(-c2cn(-c3ccccc3)c(CC(=O)N3CCN(c4ncncn4)CC3)n2)cc1` [Example 7.04.32.]: the EC50 amounted to 281 nM.

`COc1ccc(-c2cn(-c3ccccc3)c(CC(=O)N3CCN(c4ncccn4)CC3)n2)cc1` [Example 7.04.33.]: the concentration giving a half-maximal response (EC50) stood at 112 nM.

For the molecule `COc1ccc(-c2cn(-c3ccccc3)c(CC(=O)N3CCN(c4ncc(F)cn4)CC3)n2)cc1` [Example 7.04.34.], the EC50 came to 95 nM.

Take `COc1ccc(-c2cn(-c3ccccc3)c(CC(=O)N3CCN(c4ncc(OC)cn4)CC3)n2)cc1` [Example 7.04.35.]: the EC50 turned out to be 76 nM.

In the case of `COc1ccc(-c2cn(-c3ccc(F)cc3)c(CC(=O)N3CCN(c4ncc(F)cn4)CC3)n2)cc1` [Example 7.04.36.], the EC50 was 57 nM.

In the case of `COc1cccc(-c2cn(-c3ccc(F)cc3)c(CC(=O)N3CCN(c4ncccn4)CC3)n2)c1` [Example 7.04.37.], the EC50 was determined as 46 nM.

Consider `COc1cccc(-c2cn(-c3ccc(F)cc3)c(CC(=O)N3CCN(c4cc(OC)ncn4)CC3)n2)c1` [Example 7.04.38.], for which the EC50 is 108 nM.

For `COc1cccc(-c2cn(-c3ccc(F)cc3)c(CC(=O)N3CCN(c4cc(OC)ccn4)CC3)n2)c1` [Example 7.04.39.], the EC50 was 106 nM.

Turning to `COc1cccc(-c2cn(-c3ccc(F)cc3)c(CC(=O)N3CCN(c4ncncn4)CC3)n2)c1` [Example 7.04.40.], the EC50 was 143 nM.

Take `COc1cccc(-c2cn(-c3ccc(F)cc3)c(CC(=O)N3CCN(c4ccccn4)CC3)n2)c1` [Example 7.04.41.]: the EC50 stood at 92 nM.
